Test results as given in publication doi:10.1101/706168v1 (biorxiv, 2019).

What was measured:
[1] = target: TASK-1 (K2P3.1), wild type (Homo sapiens, UniProt O14649); assay: two-electrode voltage clamp, Xenopus oocytes; assay type: cell-based
Kir3.1/3.4 = target: T1, Kir3.1/3.4 (Homo sapiens, UniProt P48544+P48549); assay: cell-based
T1 sequence (P48544 1-419): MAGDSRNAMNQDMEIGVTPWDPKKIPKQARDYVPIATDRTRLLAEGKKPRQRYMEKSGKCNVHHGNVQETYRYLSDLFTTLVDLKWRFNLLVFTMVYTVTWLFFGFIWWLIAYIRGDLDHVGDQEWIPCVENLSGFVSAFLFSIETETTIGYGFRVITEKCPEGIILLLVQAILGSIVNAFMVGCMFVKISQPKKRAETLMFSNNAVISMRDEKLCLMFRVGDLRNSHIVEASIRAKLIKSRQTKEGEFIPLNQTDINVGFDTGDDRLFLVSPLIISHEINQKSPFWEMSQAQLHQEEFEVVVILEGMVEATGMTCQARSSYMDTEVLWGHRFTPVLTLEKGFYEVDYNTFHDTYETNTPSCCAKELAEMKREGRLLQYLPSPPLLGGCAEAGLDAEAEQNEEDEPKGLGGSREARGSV
T1 sequence (P48549 1-501): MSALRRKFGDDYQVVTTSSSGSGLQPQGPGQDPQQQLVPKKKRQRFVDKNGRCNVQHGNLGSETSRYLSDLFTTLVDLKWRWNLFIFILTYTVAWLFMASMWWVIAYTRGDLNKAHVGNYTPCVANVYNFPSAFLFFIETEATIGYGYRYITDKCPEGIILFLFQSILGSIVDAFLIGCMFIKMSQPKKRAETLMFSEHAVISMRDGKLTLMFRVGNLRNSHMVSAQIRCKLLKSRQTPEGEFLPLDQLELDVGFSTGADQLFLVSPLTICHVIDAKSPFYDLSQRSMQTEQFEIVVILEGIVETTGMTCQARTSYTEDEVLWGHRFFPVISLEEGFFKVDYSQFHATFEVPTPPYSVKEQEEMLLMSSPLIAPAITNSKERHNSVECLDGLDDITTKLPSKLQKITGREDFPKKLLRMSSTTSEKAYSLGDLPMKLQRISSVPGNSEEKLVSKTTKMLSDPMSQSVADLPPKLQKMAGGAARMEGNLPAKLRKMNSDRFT

TWIK2 = target: T2, TWIK2 (Homo sapiens, UniProt Q9Y257); assay: cell-based
T2 sequence (Q9Y257 1-313): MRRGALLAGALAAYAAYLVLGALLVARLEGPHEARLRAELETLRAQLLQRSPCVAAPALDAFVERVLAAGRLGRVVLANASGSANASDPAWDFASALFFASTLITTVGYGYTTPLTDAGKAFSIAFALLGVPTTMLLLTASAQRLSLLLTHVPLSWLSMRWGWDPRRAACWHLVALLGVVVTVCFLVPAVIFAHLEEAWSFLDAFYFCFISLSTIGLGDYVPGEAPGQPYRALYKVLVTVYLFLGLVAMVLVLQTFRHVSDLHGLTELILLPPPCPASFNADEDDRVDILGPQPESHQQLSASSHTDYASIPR

TRPA1 = TRPA1 (Homo sapiens, UniProt O75762); assay: cell-based
TRPC5 = target: T3, TRPC5 (Homo sapiens, UniProt Q9UL62); assay: cell-based
T3 sequence (Q9UL62 1-973): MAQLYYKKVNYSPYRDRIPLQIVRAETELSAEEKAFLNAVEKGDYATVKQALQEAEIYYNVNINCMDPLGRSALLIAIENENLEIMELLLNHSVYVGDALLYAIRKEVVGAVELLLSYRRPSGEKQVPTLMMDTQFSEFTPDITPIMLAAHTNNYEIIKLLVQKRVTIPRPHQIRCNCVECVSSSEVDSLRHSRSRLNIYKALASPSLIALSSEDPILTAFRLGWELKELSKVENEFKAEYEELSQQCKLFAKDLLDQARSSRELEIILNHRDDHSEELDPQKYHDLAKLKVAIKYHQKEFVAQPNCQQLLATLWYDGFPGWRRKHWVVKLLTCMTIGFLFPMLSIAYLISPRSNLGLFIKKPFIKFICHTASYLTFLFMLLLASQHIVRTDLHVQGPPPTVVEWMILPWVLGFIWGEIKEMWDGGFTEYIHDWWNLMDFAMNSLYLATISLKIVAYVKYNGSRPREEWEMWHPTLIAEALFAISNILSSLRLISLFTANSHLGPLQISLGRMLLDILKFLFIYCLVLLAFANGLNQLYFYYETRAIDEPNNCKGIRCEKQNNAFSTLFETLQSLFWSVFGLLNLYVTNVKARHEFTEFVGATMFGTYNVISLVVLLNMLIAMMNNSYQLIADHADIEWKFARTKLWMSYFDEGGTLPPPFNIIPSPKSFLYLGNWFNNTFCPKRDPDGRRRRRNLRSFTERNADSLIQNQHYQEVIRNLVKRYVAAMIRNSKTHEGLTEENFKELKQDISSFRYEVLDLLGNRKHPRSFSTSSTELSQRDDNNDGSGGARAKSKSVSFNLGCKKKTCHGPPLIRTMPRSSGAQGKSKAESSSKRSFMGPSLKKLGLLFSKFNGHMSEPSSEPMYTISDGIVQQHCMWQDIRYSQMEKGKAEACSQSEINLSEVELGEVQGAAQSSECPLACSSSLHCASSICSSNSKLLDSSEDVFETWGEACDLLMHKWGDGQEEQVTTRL

Kv1.5 = Kv1.5 (Homo sapiens, UniProt P22460); assay: cell-based
Nav1.5 = Nav1.5 (Homo sapiens, UniProt Q14524); assay: cell-based
KCNQ1 = KCNQ1 (Homo sapiens, UniProt P51787); assay: cell-based
Cav1.2 = Cav1.2 (Homo sapiens, UniProt Q13936); assay: cell-based
Sequence of Cav1.2 (Q13936 whole entry): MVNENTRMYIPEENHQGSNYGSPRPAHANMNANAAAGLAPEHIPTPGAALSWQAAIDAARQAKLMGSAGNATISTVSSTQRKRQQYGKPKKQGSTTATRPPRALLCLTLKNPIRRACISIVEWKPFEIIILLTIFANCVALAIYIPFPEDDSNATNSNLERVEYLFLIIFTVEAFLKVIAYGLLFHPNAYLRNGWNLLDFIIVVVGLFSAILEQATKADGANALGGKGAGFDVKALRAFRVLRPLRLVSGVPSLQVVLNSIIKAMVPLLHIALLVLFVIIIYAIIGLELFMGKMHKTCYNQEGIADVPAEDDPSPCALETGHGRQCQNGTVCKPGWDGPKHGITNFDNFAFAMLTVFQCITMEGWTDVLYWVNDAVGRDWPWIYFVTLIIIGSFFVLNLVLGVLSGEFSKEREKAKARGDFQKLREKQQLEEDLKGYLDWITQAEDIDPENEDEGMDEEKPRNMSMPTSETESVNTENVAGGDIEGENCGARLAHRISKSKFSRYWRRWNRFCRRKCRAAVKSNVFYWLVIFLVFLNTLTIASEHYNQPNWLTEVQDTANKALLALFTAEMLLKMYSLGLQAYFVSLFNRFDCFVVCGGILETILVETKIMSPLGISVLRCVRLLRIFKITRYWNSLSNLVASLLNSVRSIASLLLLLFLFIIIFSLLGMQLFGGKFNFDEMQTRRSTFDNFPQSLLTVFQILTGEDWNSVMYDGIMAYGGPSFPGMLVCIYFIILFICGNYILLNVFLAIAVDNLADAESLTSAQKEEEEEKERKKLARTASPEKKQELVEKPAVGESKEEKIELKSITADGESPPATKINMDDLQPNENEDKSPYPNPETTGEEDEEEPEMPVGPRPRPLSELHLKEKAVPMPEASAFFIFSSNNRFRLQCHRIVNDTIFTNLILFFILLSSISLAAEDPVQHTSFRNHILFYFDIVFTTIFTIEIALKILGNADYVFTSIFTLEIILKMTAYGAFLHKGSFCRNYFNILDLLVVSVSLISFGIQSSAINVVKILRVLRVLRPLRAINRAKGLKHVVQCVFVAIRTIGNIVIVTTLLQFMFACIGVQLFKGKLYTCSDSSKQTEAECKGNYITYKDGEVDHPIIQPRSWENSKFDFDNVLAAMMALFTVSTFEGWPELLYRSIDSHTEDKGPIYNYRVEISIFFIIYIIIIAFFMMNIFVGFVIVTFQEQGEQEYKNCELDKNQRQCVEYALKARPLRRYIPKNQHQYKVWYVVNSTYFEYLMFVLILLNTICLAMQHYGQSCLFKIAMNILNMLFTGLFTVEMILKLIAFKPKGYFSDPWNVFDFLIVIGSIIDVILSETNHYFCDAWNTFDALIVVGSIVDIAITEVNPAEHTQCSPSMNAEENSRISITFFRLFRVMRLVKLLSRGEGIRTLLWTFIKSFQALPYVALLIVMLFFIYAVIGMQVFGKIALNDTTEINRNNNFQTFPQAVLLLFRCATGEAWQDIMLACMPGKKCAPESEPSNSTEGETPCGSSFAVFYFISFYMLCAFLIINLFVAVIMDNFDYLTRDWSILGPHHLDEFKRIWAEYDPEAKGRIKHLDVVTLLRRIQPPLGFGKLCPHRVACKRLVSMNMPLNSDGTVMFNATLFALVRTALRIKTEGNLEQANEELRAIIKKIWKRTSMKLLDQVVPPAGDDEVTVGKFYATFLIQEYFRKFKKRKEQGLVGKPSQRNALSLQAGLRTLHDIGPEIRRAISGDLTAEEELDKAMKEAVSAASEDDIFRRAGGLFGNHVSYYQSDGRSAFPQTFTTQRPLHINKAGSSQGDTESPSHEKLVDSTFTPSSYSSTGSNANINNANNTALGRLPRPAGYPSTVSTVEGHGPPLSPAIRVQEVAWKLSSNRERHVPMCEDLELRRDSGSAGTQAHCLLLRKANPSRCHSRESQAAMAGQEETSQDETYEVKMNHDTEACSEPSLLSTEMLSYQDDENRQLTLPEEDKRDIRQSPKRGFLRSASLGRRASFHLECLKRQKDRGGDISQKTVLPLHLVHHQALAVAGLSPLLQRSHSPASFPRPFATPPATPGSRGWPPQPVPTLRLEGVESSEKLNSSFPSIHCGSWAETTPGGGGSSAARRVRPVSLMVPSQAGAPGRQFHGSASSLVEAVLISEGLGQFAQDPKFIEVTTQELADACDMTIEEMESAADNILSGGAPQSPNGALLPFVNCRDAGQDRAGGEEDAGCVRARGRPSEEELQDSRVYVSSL

Sequence of KCNQ1 (P51787 whole entry): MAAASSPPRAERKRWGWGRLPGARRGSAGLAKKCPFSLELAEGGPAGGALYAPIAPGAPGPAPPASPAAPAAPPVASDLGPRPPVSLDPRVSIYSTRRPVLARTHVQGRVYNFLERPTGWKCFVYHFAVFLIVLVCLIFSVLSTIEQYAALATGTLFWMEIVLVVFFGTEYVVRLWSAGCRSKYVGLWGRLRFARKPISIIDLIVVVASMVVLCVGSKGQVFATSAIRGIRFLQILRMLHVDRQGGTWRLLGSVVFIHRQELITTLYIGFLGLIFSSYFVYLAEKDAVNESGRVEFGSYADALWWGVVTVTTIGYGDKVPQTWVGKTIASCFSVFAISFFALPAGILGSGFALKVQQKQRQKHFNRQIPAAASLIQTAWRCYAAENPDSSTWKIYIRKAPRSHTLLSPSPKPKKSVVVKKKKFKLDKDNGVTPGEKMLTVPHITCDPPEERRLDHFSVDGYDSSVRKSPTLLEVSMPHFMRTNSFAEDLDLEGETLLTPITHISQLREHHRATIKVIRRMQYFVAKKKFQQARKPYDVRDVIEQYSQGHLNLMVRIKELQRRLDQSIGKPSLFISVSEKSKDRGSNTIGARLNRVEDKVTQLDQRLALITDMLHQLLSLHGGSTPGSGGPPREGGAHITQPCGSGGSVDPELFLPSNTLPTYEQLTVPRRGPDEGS
Sequence of TASK-1 (K2P3.1), wild type (O14649 whole entry): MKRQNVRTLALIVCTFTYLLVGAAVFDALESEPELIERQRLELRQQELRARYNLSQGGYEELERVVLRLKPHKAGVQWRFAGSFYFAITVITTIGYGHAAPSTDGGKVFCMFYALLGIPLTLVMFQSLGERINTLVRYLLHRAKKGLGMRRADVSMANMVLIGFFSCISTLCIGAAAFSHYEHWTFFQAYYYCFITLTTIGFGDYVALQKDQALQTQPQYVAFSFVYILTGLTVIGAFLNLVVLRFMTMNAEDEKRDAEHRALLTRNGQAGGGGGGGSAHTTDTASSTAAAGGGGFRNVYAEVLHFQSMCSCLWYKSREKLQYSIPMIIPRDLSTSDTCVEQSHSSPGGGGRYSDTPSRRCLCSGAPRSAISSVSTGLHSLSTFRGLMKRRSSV
Sequence of TRPA1 (O75762 whole entry): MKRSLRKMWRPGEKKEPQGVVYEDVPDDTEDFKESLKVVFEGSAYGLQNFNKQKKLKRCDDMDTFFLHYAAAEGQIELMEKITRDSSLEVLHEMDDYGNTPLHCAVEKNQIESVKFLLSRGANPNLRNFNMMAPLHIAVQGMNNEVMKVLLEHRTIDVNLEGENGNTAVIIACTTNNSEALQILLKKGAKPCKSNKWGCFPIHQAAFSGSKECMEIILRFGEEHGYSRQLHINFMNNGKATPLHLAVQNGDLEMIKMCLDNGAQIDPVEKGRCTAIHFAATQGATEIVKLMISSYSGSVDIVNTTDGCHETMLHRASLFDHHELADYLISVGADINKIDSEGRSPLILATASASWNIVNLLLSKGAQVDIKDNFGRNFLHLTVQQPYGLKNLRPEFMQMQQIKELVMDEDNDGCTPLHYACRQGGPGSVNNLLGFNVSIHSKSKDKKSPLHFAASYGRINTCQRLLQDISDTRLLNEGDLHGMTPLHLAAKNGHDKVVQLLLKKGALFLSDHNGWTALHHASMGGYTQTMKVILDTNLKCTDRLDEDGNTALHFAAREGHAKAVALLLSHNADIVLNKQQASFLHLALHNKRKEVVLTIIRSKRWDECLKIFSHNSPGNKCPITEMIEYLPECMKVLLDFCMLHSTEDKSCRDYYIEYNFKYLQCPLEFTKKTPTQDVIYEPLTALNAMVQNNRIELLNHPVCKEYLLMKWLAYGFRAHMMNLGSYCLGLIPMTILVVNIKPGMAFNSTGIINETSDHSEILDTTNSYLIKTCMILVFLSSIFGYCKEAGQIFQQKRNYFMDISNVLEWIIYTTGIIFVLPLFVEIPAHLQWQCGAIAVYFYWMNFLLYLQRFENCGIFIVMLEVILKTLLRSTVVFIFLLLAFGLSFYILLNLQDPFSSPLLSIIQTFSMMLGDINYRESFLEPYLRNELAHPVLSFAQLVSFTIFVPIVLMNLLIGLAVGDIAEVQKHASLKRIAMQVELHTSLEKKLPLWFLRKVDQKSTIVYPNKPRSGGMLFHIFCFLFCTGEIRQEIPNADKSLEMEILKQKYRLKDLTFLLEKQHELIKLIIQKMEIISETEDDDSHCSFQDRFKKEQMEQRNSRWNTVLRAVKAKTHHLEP
Sequence of Kv1.5 (P22460 whole entry): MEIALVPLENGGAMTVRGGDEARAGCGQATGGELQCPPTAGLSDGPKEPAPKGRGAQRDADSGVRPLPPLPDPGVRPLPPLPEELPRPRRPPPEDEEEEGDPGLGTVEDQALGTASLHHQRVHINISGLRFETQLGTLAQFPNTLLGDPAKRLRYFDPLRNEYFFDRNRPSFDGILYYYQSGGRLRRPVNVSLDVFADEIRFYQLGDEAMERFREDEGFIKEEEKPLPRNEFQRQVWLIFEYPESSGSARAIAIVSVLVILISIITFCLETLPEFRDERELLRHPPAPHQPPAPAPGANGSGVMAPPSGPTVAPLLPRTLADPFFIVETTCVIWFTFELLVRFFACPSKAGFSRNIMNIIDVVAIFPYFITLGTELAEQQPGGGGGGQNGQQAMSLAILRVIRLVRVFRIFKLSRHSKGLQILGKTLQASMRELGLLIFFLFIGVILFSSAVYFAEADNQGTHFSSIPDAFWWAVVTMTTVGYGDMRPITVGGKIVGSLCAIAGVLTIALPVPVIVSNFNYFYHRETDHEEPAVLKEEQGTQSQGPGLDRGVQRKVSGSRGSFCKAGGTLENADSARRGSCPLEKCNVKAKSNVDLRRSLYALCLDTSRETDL

`O=C(c1ccccc1F)N1CCN(Cc2c(-c3ccc(Br)cc3)nc3ccccn23)CC1` [BAY 1000493, (4-{[2-(4-bromophenyl)imidazo[1,2-a]pyridin-3-yl]methyl}vpiperazin-1-yl)(2-fluorophenyl)methanone] was tested, and the EC50 [1] was 0.0095 µM, the IC50 (Kir3.1/3.4) was > 30 µM and the IC50 (TWIK2) was > 30 µM. For the same molecule, the IC50 (TRPA1) was > 30 µM, the IC50 (TRPC5) was > 30 µM and the IC50 (Kv1.5) was 19 µM. The IC50 (Nav1.5) was > 30 µM, the IC50 (KCNQ1) was > 30 µM and the IC50 (Cav1.2) was > 30 µM.
